Each compound was assayed on AKT protein phosphorylated on serine 473 (P-AKT-S473) in PC3 human prostate carcinoma cells (assay: pAKT expression in PC3 human prostate carcinoma cells, MSD Multi-spot Biomarker detection (Test A)). Conditions: Homo sapiens, PC-3, PC3 cells, 1 to 2 h incubation, P-AKT-S473, absolute IC50, mean of two independent experiments.
Format: cell-based
Summary of the method: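 Lysate pAKT-S473 measured by electrochemiluminescent sandwich immunoassay; inhibition versus cell-free background and DMSO-only wells, IC50 averaged over two experiments.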

IC50 | Structure (SMILES)
51 nM | O=C(Cc1nc(N2CCOCC2)cc(=O)n1-c1ccccc1)N1CCc2ccccc21 [Example 39d, 2-[2-(2,3-Dihydroindol-1-yl)-2-oxoethyl]-6-morpholin-4-yl-3-phenyl-3H-pyrimidin-4-one]
12 nM | CC1CN(c2cc(=O)[nH]c(CC(=O)N3CCc4c(Cl)cccc43)n2)CCO1 (stereo not shown) [Example 28b, 2-[2-(4-chloro-2,3-dihydroindol-1-yl)-2-oxoethyl]-6-(2-methylmorpholin-4-yl)-3H-pyrimidin-4-one]
520 nM | CN1CCN(Cc2cccc3c2CCN3C(=O)Cc2nc(N3CCOCC3)cc(=O)n2C)CC1 [Example 20d, 3-methyl-2-(2-{4[(4-methylpiperazin-1-yl)methyl]-2,3-dihydro-1H-indol-1-yl}-2-oxoethyl)-6-(morpholin-4-yl)pyrimidin-4(3H)-one]
105 nM | CCC1CN(c2cc(=O)[nH]c(CC(=O)Nc3ccc(F)cc3)n2)CCO1 (single isomer, unassigned; (+)) [Example 15b, (+)-2-[4-(2-Ethylmorpholin-4-yl)-6-oxo-1,6-dihydropyrimidin-2-yl]-N-(4-fluorophenyl)acetamide]
24 nM | O=C(Cc1nc(N2CCOCC2)cc(=O)[nH]1)N1CCc2c(-c3ccccc3)cccc21 [Example 2d, 6-(morpholin-4-yl)-2-[2-oxo-2-(4-phenyl-2,3-dihydro-1H-indol-1-yl)ethyl]pyrimidin-4(3H)-one]
2860 nM | O=C(Cc1nc(-c2ccnc(F)c2)cc(=O)[nH]1)N1CCc2c(F)cccc21 [Example 24b, 2-[2-(4-Fluoro-2,3-dihydroindol-1-yl)-2-oxoethyl]-6-(2-fluoropyridin-4-yl)-3H-pyrimidin-4-one]
101 nM | N#Cc1cccc2c1CCN2C(=O)Cc1nc(N2CCOCC2)cc(=O)[nH]1 [Example 46c, 1-{[4-(morpholin-4-yl)-6-oxo-1,6-dihydropyrimidin-2-yl]acetyl}-2,3-dihydro-1H-indole-4-carbonitrile]
106 nM | Cn1c(CC(=O)N2CC3(CCOCC3)c3ccccc32)nc(N2CCOCC2)cc1=O [Example 22d, 3-methyl-6-(morpholin-4-yl)-2-[2-oxo-2-(2′,3′,5′,6′-tetrahydrospiro[indole-3,4′-pyran]-1(2H)-yl)ethyl]pyrimidin-4(3H)-one]
53 nM | O=C(Cc1nc(N2CCOCC2)cc(=O)[nH]1)N1CCc2c(-c3cccnc3)cccc21 [Example 13d, 6-(morpholin-4-yl)-2-{2-oxo-2-[4-(pyridin-3-yl)-2,3-dihydro-1H-indol-1-yl]ethyl}pyrimidin-4(3H)-one]
44 nM | C[C@H]1Cc2ccccc2N1C(=O)Cc1nc(N2CCOC(CF)C2)cc(=O)[nH]1 (stereo partly drawn) [Example 30b, 6-(2-fluoromethylmorpholin-4-yl)-2-[2-((S)-2-methyl-2,3-dihydroindol-1-yl)-2-oxoethyl]-3H-pyrimidin-4-one]
158 nM | Cn1c(CC(=O)N2CCc3c(F)cccc32)nc(N2CCOCC2)c(F)c1=O [Example 3a, 5-fluoro-2-[2-(4-fluoro-2,3-dihydro-1H-indol-1-yl)-2-oxoethyl]-3-methyl-6-(morpholin-4-yl)pyrimidin-4(3H)-one]
15 nM | C[C@H]1Cc2ccccc2N1C(=O)Cc1nc(N2CCOCC2)c(F)c(=O)[nH]1 [Example 5a, 5-fluoro-2-{2-[(2S)-2-methyl-2,3-dihydro-1H-indol-1-yl]-2-oxoethyl}-6-(morpholin-4-yl)pyrimidin-4(3H)-one]
35 nM | Cn1c(CC(=O)N2CC(C)(C)c3c(Cl)cccc32)nc(N2CCOCC2)cc1=O [Example 4c, 2-[2-(4-chloro-3,3-dimethyl-2,3-dihydro-1H-indol-1-yl)-2-oxoethyl]-3-methyl-6-(morpholin-4-yl)pyrimidin-4(3H)-one]
37 nM | O=C(Cc1nc(N2CCOCC2)cc(=O)n1C1CC1)N1CCc2c(Cl)cccc21 [Example 15d, 2-[2-(4-chloro-2,3-dihydro-1H-indol-1-yl)-2-oxoethyl]-3-cyclopropyl-6-(morpholin-4-yl)pyrimidin-4(3H)-one]
30 nM | O=C(Cc1nc(N2CCOCC2)cc(=O)[nH]1)N1c2ccccc2C2CCCC21 (stereo not shown) [Example 16d, 6-(morpholin-4-yl)-2-[2-oxo-2-(2,3,3a,8b-tetrahydrocyclopenta[b]indol-4(1H)-yl)ethyl]pyrimidin-4(3H)-one]
40 nM | CC1Cc2ccc(F)cc2N1C(=O)Cc1nc(N2CCOCC2)c(F)c(=O)[nH]1 (stereo not drawn) [Example 32a, 5-fluoro-2-[2-((−)-6-fluoro-2-methyl-2,3-dihydroindol-1-yl)-2-oxoethyl]-6-morpholin-4-yl-3H-pyrimidin-4-one]
29 nM | CC(C(=O)N1CCc2c(F)cccc21)c1nc(N2CCOCC2)cc(=O)[nH]1 (stereo not shown) [Example 41c, 2-[1-(4-fluoro-2,3-dihydro-1H-indol-1-yl)-1-oxopropan-2-yl]-6-(morpholin-4-yl)pyrimidin-4(3H)-one]
19 nM | CC1Cc2c(ccc(F)c2F)N1C(=O)Cc1nc(N2CCOCC2)cc(=O)n1C (single isomer, unassigned; (+)) [Example 19c, (+)-2-{2-[4,5-difluoro-2-methyl-2,3-dihydro-1H-indol-1-yl]-2-oxoethyl}-3-methyl-6-(morpholin-4-yl)pyrimidin-4(3H)-one]

Same assay, conditions: PC3 cells, 1 to 2 h incubation, P-AKT-S473, absolute IC50, mean of two independent experiments

IC50 | Structure (SMILES)
3 nM | CC1Cc2cc(F)ccc2N1C(=O)Cc1nc(N2CCOCC2)c(F)c(=O)[nH]1 (stereo not drawn) [Example 7a, 5-fluoro-2-[2-((−)-5-fluoro-2-methyl-2,3-dihydroindol-1-yl)-2-oxoethyl]-6-morpholin-4-yl-3H-pyrimidin-4-one]
260 nM | CC(F)(C(=O)N1CCc2c(F)cccc21)c1nc(N2CCOCC2)cc(=O)[nH]1 (single isomer, unassigned; (+)) [Example 45c, (+)-2-[2-fluoro-1-(4-fluoro-2,3-dihydro-1H-indol-1-yl)-1-oxopropan-2-yl]-6-(morpholin-4-yl)pyrimidin-4(3H)-one]
22 nM | CC1Cc2c(O)cccc2N1C(=O)Cc1nc(N2CCOCC2)cc(=O)[nH]1 (single isomer, unassigned; (-)) [Example 10c, (−)-2-{2-[4-hydroxy-2-methyl-2,3-dihydro-1H-indol-1-yl]-2-oxoethyl}-6-(morpholin-4-yl)pyrimidin-4(3H)-one]
115 nM | CC1Cc2c(O)cccc2N1C(=O)Cc1nc(N2CCOCC2)cc(=O)[nH]1 (single isomer, unassigned; (+)) [Example 9c, (+)-2-{2-[4-hydroxy-2-methyl-2,3-dihydro-1H-indol-1-yl]-2-oxoethyl}-6-(morpholin-4-yl)pyrimidin-4(3H)-one]
27 nM | CC1Cc2ccc(F)cc2N1C(=O)Cc1nc(N2CCOCC2)cc(=O)[nH]1 (stereo not drawn) [Example 35c, 2-{2-[(+)-6-fluoro-2-methyl-2,3-dihydro-1H-indol-1-yl]-2-oxoethyl}-6-(morpholin-4-yl)pyrimidin-4(3H)-one]
39 nM | CC1Cc2c(Br)cccc2N1C(=O)Cc1nc(N2CCOCC2)cc(=O)[nH]1 (single isomer, unassigned; (+)) [Example 25c, (+)-2-{2-[4-bromo-2-methyl-2,3-dihydro-1H-indol-1-yl]-2-oxoethyl}-6-(morpholin-4-yl)pyrimidin-4(3H)-one]
18 nM | CC1CN(c2cc(=O)[nH]c(CC(=O)N3CCc4c(F)cccc43)n2)CCO1 (stereo not shown) [Example 8b, 2-[2-(4-fluoro-2,3-dihydroindol-1-yl)-2-oxoethyl]-6-(2-methylmorpholin-4-yl)-3H-pyrimidin-4-one]
33 nM | CC1Cc2c(OC(F)F)cccc2N1C(=O)Cc1nc(N2CCOCC2)cc(=O)[nH]1 (single isomer, unassigned; (+)) [Example 29d, (+)-2-{2-[4-(difluoromethoxy)-2-methyl-2,3-dihydro-1H-indol-1-yl]-2-oxoethyl}-6-(morpholin-4-yl)pyrimidin-4(3H)-one]
15 nM | CC1Cc2c(Br)cccc2N1C(=O)Cc1nc(N2CCOCC2)c(F)c(=O)n1C (stereo not drawn) [Example 31a, 5-fluoro-2-[2-((−)-4-bromo-2-methyl-2,3-dihydroindol-1-yl)-2-oxoethyl]-3-methyl-6-morpholin-4-yl-3H-pyrimidin-4-one]
5 nM | O=C(Cc1nc(N2CCOCC2)cc(=O)[nH]1)N1c2ccccc2CC1c1ccccc1 (single isomer, unassigned; (-)) [Example 25d, (−)-6-(morpholin-4-yl)-2-{2-oxo-2-[2-phenyl-2,3-dihydro-1H-indol-1-yl]ethyl}pyrimidin-4(3H)-one]
114 nM | CC1Cc2cc(F)c(F)cc2N1C(=O)Cc1nc(N2CCOCC2)cc(=O)n1C (stereo not drawn) [Example 24c, 2-{2-[(+)-5,6-difluoro-2-methyl-2,3-dihydro-1H-indol-1-yl]-2-oxoethyl}-3-methyl-6-(morpholin-4-yl)pyrimidin-4(3H)-one]
14 nM | CCC1Cc2ccccc2N1C(=O)Cc1nc(N2CCOCC2)cc(=O)[nH]1 (single isomer, unassigned; (-)) [Example 43c, (−)-2-[2-(2-ethyl-2,3-dihydroindol-1-yl)-2-oxoethyl]-6-morpholin-4-yl-3H-pyrimidin-4-one]
16 nM | CC1Cc2cc(F)c(F)cc2N1C(=O)Cc1nc(N2CCOCC2)c(F)c(=O)[nH]1 (stereo not drawn) [Example 12a, 2-[2-((+)-5,6-difluoro-2-methyl-2,3-dihydroindol-1-yl)-2-oxoethyl]-5-fluoro-6-morpholin-4-yl-3H-pyrimidin-4-one]
